Our source for the IC50 values is patent US10246451B2, “Propionic acid derivatives and methods of use thereof” (Aviara Pharmaceuticals, Inc., priority 2017, dated 2019).

The target of the assay is α4β1 integrin (Homo sapiens, UniProt P05556+P13612). Put plainly: a4b1 IC50 (inhibition of α4β1 integrin; no method described). It counts as binding.

Broadly, the IC50 is the concentration needed to halve the response being measured.

Where only a bound is given, the exact number is not on record here.

Sequence of α4β1 integrin (P13612 34-1032): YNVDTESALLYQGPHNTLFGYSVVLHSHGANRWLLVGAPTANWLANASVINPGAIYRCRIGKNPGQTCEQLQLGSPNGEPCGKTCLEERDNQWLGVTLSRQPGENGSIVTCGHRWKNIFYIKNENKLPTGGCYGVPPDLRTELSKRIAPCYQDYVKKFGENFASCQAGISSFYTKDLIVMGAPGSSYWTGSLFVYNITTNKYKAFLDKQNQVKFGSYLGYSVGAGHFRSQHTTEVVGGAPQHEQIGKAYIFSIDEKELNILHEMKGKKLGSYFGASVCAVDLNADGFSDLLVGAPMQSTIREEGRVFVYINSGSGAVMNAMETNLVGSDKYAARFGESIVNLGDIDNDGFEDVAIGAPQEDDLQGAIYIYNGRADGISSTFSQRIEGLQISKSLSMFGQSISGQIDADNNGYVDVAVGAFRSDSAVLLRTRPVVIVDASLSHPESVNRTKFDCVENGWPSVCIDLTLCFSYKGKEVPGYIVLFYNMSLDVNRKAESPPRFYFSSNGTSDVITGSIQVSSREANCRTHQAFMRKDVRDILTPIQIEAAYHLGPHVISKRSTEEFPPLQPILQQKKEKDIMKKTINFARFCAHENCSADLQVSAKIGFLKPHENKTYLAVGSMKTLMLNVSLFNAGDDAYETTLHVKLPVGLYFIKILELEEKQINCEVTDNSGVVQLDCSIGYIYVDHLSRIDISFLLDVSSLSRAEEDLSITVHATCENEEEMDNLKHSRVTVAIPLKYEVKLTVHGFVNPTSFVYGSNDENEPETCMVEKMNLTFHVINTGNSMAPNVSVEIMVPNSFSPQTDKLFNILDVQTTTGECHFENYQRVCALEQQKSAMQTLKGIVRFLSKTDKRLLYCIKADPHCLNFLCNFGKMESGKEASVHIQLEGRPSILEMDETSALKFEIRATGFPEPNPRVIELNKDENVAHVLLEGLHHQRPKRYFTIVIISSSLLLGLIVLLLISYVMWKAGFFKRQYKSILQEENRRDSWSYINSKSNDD
Sequence of α4β1 integrin (P05556 21-798): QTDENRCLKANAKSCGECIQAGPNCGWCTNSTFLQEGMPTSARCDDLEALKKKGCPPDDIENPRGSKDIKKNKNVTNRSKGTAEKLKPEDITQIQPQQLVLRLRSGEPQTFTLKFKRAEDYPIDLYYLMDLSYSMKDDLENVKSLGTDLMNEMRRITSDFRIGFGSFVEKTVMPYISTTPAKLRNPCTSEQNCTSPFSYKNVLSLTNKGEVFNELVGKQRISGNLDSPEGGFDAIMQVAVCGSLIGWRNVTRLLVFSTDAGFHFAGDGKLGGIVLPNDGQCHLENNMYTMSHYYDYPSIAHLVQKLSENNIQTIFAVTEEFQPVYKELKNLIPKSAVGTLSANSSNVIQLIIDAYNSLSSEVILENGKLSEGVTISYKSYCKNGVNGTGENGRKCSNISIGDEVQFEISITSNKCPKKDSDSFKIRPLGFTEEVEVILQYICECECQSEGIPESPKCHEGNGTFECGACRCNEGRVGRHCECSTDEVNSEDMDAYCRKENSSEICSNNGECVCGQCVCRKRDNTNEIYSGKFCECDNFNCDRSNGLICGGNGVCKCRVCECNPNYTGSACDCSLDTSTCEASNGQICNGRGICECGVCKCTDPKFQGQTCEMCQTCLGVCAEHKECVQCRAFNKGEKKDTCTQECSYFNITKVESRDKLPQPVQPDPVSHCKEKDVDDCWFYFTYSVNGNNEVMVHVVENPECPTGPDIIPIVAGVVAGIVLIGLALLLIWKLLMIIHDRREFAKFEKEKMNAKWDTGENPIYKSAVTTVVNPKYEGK

Compound `Cc1cn(C)c(=O)c(NC(=O)NC(CC(=O)O)c2cccc(Oc3ccccc3)c2)c1O` (centres unmarked) [Compound 1-21, sodium 3-(3-(1,5-dimethyl-4-oxido-2-oxo-1,2-dihydropyridin-3-yl)ureido)-3-(3-phenoxyphenyl)propanoate] came in with an IC50 of less than 200 nM.
Turning to `Cc1cn(C)c(=O)c(NC(=O)N[C@@H](CC(=O)O)c2cccc(Oc3ccccc3)c2)c1O` [Compound 1-22, sodium (S)-3-(3-(1,5-dimethyl-4-oxido-2-oxo-1,2-dihydropyridin-3-yl)ureido)-3-(3-phenoxyphenyl)propanoate], the IC50 is less than 200 nM.
`Cc1cn(C)c(=O)c(NC(=O)N[C@@H](CC(=O)O)c2cccc(Cc3ccccc3)c2)c1O` [Compound 1-23, sodium (S)-3-(3-benzylphenyl)-3-(3-(1,5-dimethyl-4-oxido-2-oxo-1,2-dihydropyridin-3-yl)ureido)propanoate] yielded an IC50 of less than 200 nM.
In turn, `Cc1cn(C)c(=O)c(NC(=O)NC(CC(=O)O)c2cccc(Cc3ccccc3Cl)c2)c1O` (centres unmarked) [Compound 1-24, sodium 3-(3-(2-chlorobenzyl)phenyl)-3-(3-(1,5-dimethyl-4-oxido-2-oxo-1,2-dihydropyridin-3-yl)ureido)propanoate] had an IC50 of less than 200 nM.
On to `Cc1cn(C)c(=O)c(NC(=O)NC(CC(=O)O)c2cccc(Cc3cccc(Cl)c3)c2)c1O` (centres unmarked) [Compound 1-25, sodium 3-(3-(3-chlorobenzyl)phenyl)-3-(3-(1,5-dimethyl-4-oxido-2-oxo-1,2-dihydropyridin-3-yl)ureido)propanoate], for which the IC50 was less than 200 nM.
As for `Cc1cn(C)c(=O)c(NC(=O)NC(CC(=O)O)c2cccc(Cc3ccc(Cl)cc3)c2)c1O` (centres unmarked) [Compound 1-26, sodium 3-(3-(4-chlorobenzyl)phenyl)-3-(3-(1,5-dimethyl-4-oxido-2-oxo-1,2-dihydropyridin-3-yl)ureido)propanoate], the IC50 was greater than 200 nM.
Compound `Cc1cn(C)c(=O)c(NC(=O)N[C@@H](CC(=O)O)c2ccc(Cc3ccccc3Cl)cc2)c1O` [Compound 1-27, sodium (S)-3-(4-(2-chlorobenzyl)phenyl)-3-(3-(4-hydroxy-1,5-dimethyl-2-oxo-1,2-dihydropyridin-3-yl)ureido)propanoate] showed an IC50 greater than 200 nM.
The result for `Cc1ccccc1Cc1cccc([C@H](CC(=O)O)NC(=O)Nc2c(O)c(C)cn(C)c2=O)c1` [Compound 1-28, sodium (S)-3-(3-(1,5-dimethyl-4-oxido-2-oxo-1,2-dihydropyridin-3-yl)ureido)-3-(3-(2-methylbenzyl)phenyl)propanoate] reads less than 20 nM.
`Cc1cccc(Cc2cccc([C@H](CC(=O)O)NC(=O)Nc3c(O)c(C)cn(C)c3=O)c2)c1` [Compound 1-29, sodium (S)-3-(3-(1,5-dimethyl-4-oxido-2-oxo-1,2-dihydropyridin-3-yl)ureido)-3-(3-(3-methylbenzyl)phenyl)propanoate] registered an IC50 of less than 200 nM.
In turn, `Cc1ccc(Cc2cccc([C@H](CC(=O)O)NC(=O)Nc3c(O)c(C)cn(C)c3=O)c2)cc1` [Compound 1-30, sodium (S)-3-(3-(1,5-dimethyl-4-oxido-2-oxo-1,2-dihydropyridin-3-yl)ureido)-3-(3-(4-methylbenzyl)phenyl)propanoate] showed an IC50 of less than 200 nM.
As to `COc1ccccc1Oc1ccc([C@H](CC(=O)O)NC(=O)Nc2c(O)cc(C)n(C)c2=O)cc1` [Compound 2-11, sodium (S)-3-(3-(1,6-dimethyl-4-oxido-2-oxo-1,2-dihydropyridin-3-yl)ureido)-3-(4-(2-methoxyphenoxy)phenyl)propanoate], the IC50 is less than 200 nM.
`COc1cccc(Oc2ccc([C@H](CC(=O)O)NC(=O)Nc3c(O)cc(C)n(C)c3=O)cc2)c1` [Compound 2-12, sodium (S)-3-(3-(1,6-dimethyl-4-oxido-2-oxo-1,2-dihydropyridin-3-yl)ureido)-3-(4-(3-methoxyphenoxy)phenyl)propanoate]: the IC50 was less than 200 nM.
Consider `Cc1ccccc1Cc1cccc([C@H](CC(=O)O)NC(=O)Nc2c(O)cc(C)n(C)c2=O)c1` [Compound 2-14, sodium (S)-3-(3-(1,6-dimethyl-4-oxido-2-oxo-1,2-dihydropyridin-3-yl)ureido)-3-(3-(2-methylbenzyl)phenyl)propanoate], for which the half-maximal inhibitory concentration (IC50) is less than 20 nM.
Next, `Cc1ccccc1Cc1ccc([C@H](CC(=O)O)NC(=O)Nc2c(O)cc(C)n(C)c2=O)s1` [Compound 2-15, sodium (S)-3-(3-(1,6-dimethyl-4-oxido-2-oxo-1,2-dihydropyridin-3-yl)ureido)-3-(5-(2-methylbenzyl)thiophen-2-yl)propanoate]: no more than 20 nM.
The result for `Cc1ccccc1C(F)(F)c1cccc([C@@H](CC(=O)O)NC(=O)Nc2c(O)ccn(C)c2=O)c1` [Compound 3-66, sodium (R)-3-(3-(difluoro(o-tolyl)methyl)phenyl)-3-(3-(1-methyl-4-oxido-2-oxo-1,2-dihydropyridin-3-yl)ureido)propanoate] reads greater than 200 nM; that for `Cc1ccccc1Oc1cccc([C@H](CC(=O)O)NC(=O)Nc2c(O)ccn(C)c2=O)c1` [Compound 3-67, sodium (S)-3-(3-(1-methyl-4-oxido-2-oxo-1,2-dihydropyridin-3-yl)ureido)-3-(3-(o-tolyloxy)phenyl)propanoate], less than 20 nM.
`COc1ccccc1Oc1cccc([C@H](CC(=O)O)NC(=O)Nc2c(O)ccn(C)c2=O)c1` [Compound 3-68, sodium (S)-3-(3-(2-methoxyphenoxy)phenyl)-3-(3-(1-methyl-4-oxido-2-oxo-1,2-dihydropyridin-3-yl)ureido)propanoate]: the IC50 is less than 20 nM.
The result for `Cn1ccc(O)c(NC(=O)N[C@@H](CC(=O)O)c2cccc(Oc3ccccc3Cl)c2)c1=O` [Compound 3-69, sodium (S)-3-(3-(2-chlorophenoxy)phenyl)-3-(3-(1-methyl-4-oxido-2-oxo-1,2-dihydropyridin-3-yl)ureido)propanoate] reads less than 20 nM; that for `Cc1ccc(F)cc1Cc1cccc([C@H](CC(=O)O)NC(=O)Nc2c(O)ccn(C)c2=O)c1` [Compound 3-70, sodium (S)-3-(3-(5-fluoro-2-methylbenzyl)phenyl)-3-(3-(1-methyl-4-oxido-2-oxo-1,2-dihydropyridin-3-yl)ureido)propanoate], less than 20 nM; that for `COc1ccccc1Oc1ccc([C@H](CC(=O)O)NC(=O)Nc2c(O)ccn(C)c2=O)cc1` [Compound 3-72, sodium (S)-3-(4-(2-methoxyphenoxy)phenyl)-3-(3-(1-methyl-4-oxido-2-oxo-1,2-dihydropyridin-3-yl)ureido)propanoate], less than 200 nM.
Next, `COc1cccc(Oc2ccc([C@H](CC(=O)O)NC(=O)Nc3c(O)ccn(C)c3=O)cc2)c1` [Compound 3-73, sodium (S)-3-(4-(3-methoxyphenoxy)phenyl)-3-(3-(1-methyl-4-oxido-2-oxo-1,2-dihydropyridin-3-yl)ureido)propanoate]: less than 200 nM; `Cc1ccccc1Oc1ccc([C@H](CC(=O)O)NC(=O)Nc2c(O)ccn(C)c2=O)cc1` [Compound 3-74, sodium (S)-3-(3-(1-methyl-4-oxido-2-oxo-1,2-dihydropyridin-3-yl)ureido)-3-(4-(o-tolyloxy)phenyl)propanoate]: less than 20 nM; `Cc1ccc(Oc2ccc([C@H](CC(=O)O)NC(=O)Nc3c(O)ccn(C)c3=O)cc2)cc1` [Compound 3-75, sodium (S)-3-(3-(1-methyl-4-oxido-2-oxo-1,2-dihydropyridin-3-yl)ureido)-3-(4-(p-tolyloxy)phenyl)propanoate]: less than 200 nM.
For the compound `Cn1ccc(O)c(NC(=O)N[C@@H](CC(=O)O)c2ccc(Cc3ccccc3)cc2)c1=O` [Compound 3-76, sodium (S)-3-(4-benzylphenyl)-3-(3-(1-methyl-4-oxido-2-oxo-1,2-dihydropyridin-3-yl)ureido)propanoate], the IC50 is less than 20 nM.
`Cc1ccccc1Cc1ccc([C@H](CC(=O)O)NC(=O)Nc2c(O)ccn(C)c2=O)cc1` [Compound 3-77, sodium (S)-3-(3-(1-methyl-4-oxido-2-oxo-1,2-dihydropyridin-3-yl)ureido)-3-(4-(2-methylbenzyl)phenyl)propanoate] returned a 50% inhibitory concentration (IC50) of less than 200 nM.
`Cc1cccc(Cc2ccc([C@H](CC(=O)O)NC(=O)Nc3c(O)ccn(C)c3=O)cc2)c1` [Compound 3-78, sodium (S)-3-(3-(1-methyl-4-oxido-2-oxo-1,2-dihydropyridin-3-yl)ureido)-3-(4-(3-methylbenzyl)phenyl)propanoate] displayed an IC50 greater than 200 nM.
`Cc1ccc(Cc2ccc([C@H](CC(=O)O)NC(=O)Nc3c(O)ccn(C)c3=O)cc2)cc1` [Compound 3-79, sodium (S)-3-(3-(1-methyl-4-oxido-2-oxo-1,2-dihydropyridin-3-yl)ureido)-3-(4-(4-methylbenzyl)phenyl)propanoate] displayed an IC50 greater than 200 nM.
`CCc1ccccc1Cc1cccc([C@H](CC(=O)O)NC(=O)Nc2c(O)ccn(C)c2=O)c1` [Compound 3-80, sodium (S)-3-(3-(2-ethylbenzyl)phenyl)-3-(3-(1-methyl-4-oxido-2-oxo-1,2-dihydro-pyridin-3-yl)ureido)propanoate] came in with an IC50 of less than 20 nM.
For `Cc1ccccc1Cc1cccc([C@H](CC(=O)O)NC(=O)Nc2c(O)ccn(C)c2=O)c1` [Compound 3-81, sodium (S)-3-(3-(1-methyl-4-oxido-2-oxo-1,2-dihydropyridin-3-yl)ureido)-3-(3-(2-methylbenzyl)phenyl)propanoate], the IC50 is less than 20 nM.
Regarding `Cc1ccc(Cc2cccc([C@H](CC(=O)O)NC(=O)Nc3c(O)ccn(C)c3=O)c2)cc1` [Compound 3-82, sodium (S)-3-(3-(1-methyl-4-oxido-2-oxo-1,2-dihydropyridin-3-yl)ureido)-3-(3-(4-methylbenzyl)phenyl)propanoate], the IC50 is less than 20 nM.
On to `Cc1cccc(Cc2cccc([C@H](CC(=O)O)NC(=O)Nc3c(O)ccn(C)c3=O)c2)c1` [Compound 3-83, sodium (S)-3-(3-(1-methyl-4-oxido-2-oxo-1,2-dihydropyridin-3-yl)ureido)-3-(3-(3-methylbenzyl)phenyl)propanoate], for which the IC50 is less than 200 nM.
As to `Cc1cccc(Oc2cccc([C@H](CC(=O)O)NC(=O)Nc3c(O)ccn(C)c3=O)c2)c1` [Compound 3-84, sodium (S)-3-(3-(1-methyl-4-oxido-2-oxo-1,2-dihydropyridin-3-yl)ureido)-3-(3-(m-tolyloxy)phenyl)propanoate], the IC50 was less than 20 nM.
